Measurements: patent US9145399B2, “Substituted bicyclic triazole derivatives as gamma secretase modulators” (Janssen Pharmaceuticals, Inc., priority 2010, dated 2015)
Counter-ions that a name gives are not always drawn.

Key:
Aβtotal = assay: Screening for γ-secretase-modulating activity in SKNBE2 cells carrying APP 695 wild type: Aβtotal in cell supernatant (Alphalisa); type: cell-based; details: overnight incubation
Protocol: (§1) Pharmacology A) Screening of the Compounds of the Invention for γ-Secretase-Modulating Activity
(§2) Screening was carried out using SKNBE2 cells carrying the APP 695—wild type, grown in Dulbecco's Modified Eagle's Medium/Nutrient mixture F-12 (DMEM/NUT-mix F-12) (HAM) provided by Invitrogen (cat no. 10371-029) containing 5% Serum/Fe supplemented with 1% non-essential amino acids, 1-glutamine 2 mM, Hepes 15 mM, penicillin 50 U/ml (units/ml) en streptomycin 50 μg/ml. Cells were grown to near confluency.
(§3) The screening was performed using a modification of the assay as described in Citron et al (1997) Nature Medicine 3: 67. Briefly, cells were plated in a 384-well plate at 10^4 cells/well in Ultraculture (Lonza, BE12-725F) supplemented with 1% glutamine (Invitrogen, 25030-024), 1% non-essential amino acid (NEAA), penicillin 50 U/ml en streptomycin 50 μg/ml in the presence of test compound at different test concentrations. The cell/compound mixture was incubated overnight at 37° C., 5% CO2. The next day the media were assayed by two sandwich immuno-assays, for Aβ42 and Aβtotal.
(§4) Aβtotal and Aβ42 concentrations were quantified in the cell supernatant using the Aphalisa technology (Perkin Elmer). Alphalisa is a sandwich assay using biotinylated antibody attached to streptavidin coated donorbeads and antibody conjugated to acceptor beads. In the presence of antigen, the beads come into close proximity. The excitation of the donor beads provokes the release of singlet oxygen molecules that trigger a cascade of energy transfer in the acceptor beads, resulting in light emission. To quantify the amount of Aβ42 in the cell supernatant, monoclonal antibody specific to the C-terminus of Aβ42 (JRF/cAβ42/26) was coupled to the receptor beads and biotinylated antibody specific to the N-terminus of Aβ (JRF/AβN/25) was used to react with the donor beads. T quantify the amount of Aβtotal in the cell supernatant, monoclonal antibody specific to the N-terminus of Aβ (JRF/AβN/25) was coupled to the receptor beads and biotinylated antibody specific to the mid region of Aβ (biotinylated 4G8) was used to react with the donor beads.
(§5) To obtain the values reported in Table 3, the data are calculated as percentage of the maximum amount of amyloid Beta 42 measured in the absence of the test compound. The sigmoidal dose response curves were analyzed using non-linear regression analysis with percentage of the control plotted against the log concentration of the compound. A 4-parameter equation was used to determine the IC50.

Aβ42 = assay: Screening for γ-secretase-modulating activity in SKNBE2 cells carrying APP 695 wild type: Aβ42 in cell supernatant (Alphalisa); type: cell-based; details: overnight incubation
Protocol: as §1, §2, §3, §4, §5

[1] = Homo sapiens, SKNBE2, SKNBE2 cells carrying APP 695 wild type
[2] = SKNBE2 cells carrying APP 695 wild type

Compound | IC50 (Aβtotal; Homo sapiens) [nM] | melting point [°C] | IC50 (Aβ42; [1]) [nM] | IC50 (Aβtotal) [nM] | IC50 (Aβ42; [2]) [nM]
COc1cc(Nc2nc3c(-c4ccccc4Cl)cccn3n2)ccc1-n1cnc(C)c1 [Compound 7, 8-(2-chlorophenyl)-N-[3-methoxy-4-(4-methyl-1H-imidazol-1-yl)phenyl]-[1,2,4]triazolo[1,5-a]pyridin-2-amine] | > 10000 | 235 | 7 | – | –
COc1cc(Nc2nc3n(n2)CCNC3c2ccccc2C(F)(F)F)ccc1-n1cnc(C)c1 (stereo not shown) [Compound 9, 5,6,7,8-tetrahydro-N-[3-methoxy-4-(4-methyl-1H-imidazol-1-yl)phenyl]-8-[2-(trifluoromethyl)phenyl]-[1,2,4]triazolo[1,5-a]pyrazin-2-amine] | > 10000 | 248 | 65 | – | –
COc1nc(Nc2nc3c(-c4ccc(F)cc4C)nccn3n2)ccc1-n1cnc(C)c1 [Compound 11, 8-(4-fluoro-2-methylphenyl)-N-[6-methoxy-5-(4-methyl-1H-imidazol-1-yl)-2-pyridinyl]-[1,2,4]triazolo[1,5-a]pyrazin-2-amine] | – | 278.9 | – | – | –
COc1nc(Nc2nc3c(-c4ccc(F)cc4C)nccn3n2)ccc1-c1ccnc(C)c1 [Compound 12, 8-(4-fluoro-2-methylphenyl)-N-(2-methoxy-2′-methyl[3,4′-bipyridin]-6-yl)-[1,2,4]triazolo[1,5-a]pyrazin-2-amine] | – | 268.2 | – | – | –
Cc1cc(-c2ccc(Nc3nc4n(n3)CCC[C@@H]4c3ccc(F)cc3C)cc2)ccn1 [Compound 93, (8R)-8-(4-fluoro-2-methylphenyl)-5,6,7,8-tetrahydro-N-[4-(2-methyl-4-pyridinyl)phenyl]-[1,2,4]triazolo[1,5-a]pyridin-2-amine] | > 10000 | – | 43 | – | –
Cc1cc(-c2ccc(Nc3nc4n(n3)CCC[C@H]4c3ccc(F)cc3C)cc2)ccn1 [Compound 94, (8S)-8-(4-fluoro-2-methylphenyl)-5,6,7,8-tetrahydro-N-[4-(2-methyl-4-pyridinyl)phenyl]-[1,2,4]triazolo[1,5-a]pyridin-2-amine] | > 10000 | – | 56 | – | –
COc1nc(Nc2nc3c(-c4ccc(F)cc4C)nccn3n2)ccc1-n1cnc(C)c1 [Compound 186, 8-(4-fluoro-2-methylphenyl)-N-[6-methoxy-5-(4-methyl-1H-imidazol-1-yl)-2-pyridinyl]-[1,2,4]triazolo[1,5-a]pyrazin-2-amine.HCl] | – | – | – | > 10000 | 1100
COc1nc(Nc2nc3c(-c4ccc(F)cc4C)nccn3n2)ccc1-c1ccnc(C)c1 [Compound 187, 8-(4-fluoro-2-methylphenyl)-N-(2-methoxy-2′-methyl[3,4′-bipyridin]-6-yl)-[1,2,4]triazolo[1,5-a]pyrazin-2-amine.HCl] | – | – | – | > 10000 | 1620

Other lines, results leading:

IC50 (Aβtotal; Homo sapiens) [nM] | melting point [°C] | IC50 (Aβ42; [1]) [nM] | IC50 (Aβtotal) [nM] | IC50 (Aβ42; [2]) [nM] | Compound
> 10000 | 122.1 | 44 | – | – | COc1cc(Nc2nc3n(n2)CCC(C)C3c2ccc(F)cc2)ccc1-c1ccnc(C)c1 (racemic) [Compound 101, 8-(4-fluorophenyl)-5,6,7,8-tetrahydro-N-[3-methoxy-4-(2-methyl-4-pyridinyl)phenyl]-7-methyl-[1,2,4]triazolo[1,5-a]pyridin-2-amine]
7760 | 207.1 | 16 | – | – | COc1cc(Nc2nc3n(n2)CCCC3c2ccc(F)cc2)ccc1-c1ccnc(C)c1 (stereo not shown) [Compound 1, 8-(4-fluorophenyl)-5,6,7,8-tetrahydro-N-[3-methoxy-4-(2-methyl-4-pyridinyl)phenyl]-[1,2,4]triazolo[1,5-a]pyridin-2-amine]
> 10000 | 186.7 | 7 | – | – | COc1cc(Nc2nc3c(-c4ccccc4Cl)cccn3n2)ccc1-c1ccnc(C)c1 [Compound 2, 8-(2-chlorophenyl)-N-[3-methoxy-4-(2-methyl-4-pyridinyl)phenyl]-[1,2,4]triazolo[1,5-a]pyridin-2-amine]
7410 | 238.4 | 7 | – | – | COc1cc(Nc2nc3c(-c4ccc(F)cc4C(F)(F)F)cccn3n2)ccc1-n1cnc(C)c1 [Compound 6, 8-[4-fluoro-2-(trifluoromethyl)phenyl]-N-[3-methoxy-4-(4-methyl-1H-imidazol-1-yl)phenyl]-[1,2,4]triazolo[1,5-a]pyridin-2-amine]
7590 | 206.9 | 32 | – | – | COc1cc(Nc2nc3c(-c4ccccc4C(F)(F)F)nccn3n2)ccc1-n1cnc(C)c1 [Compound 8, N-[3-methoxy-4-(4-methyl-1H-imidazol-1-yl)phenyl]-8-[2-(trifluoromethyl)phenyl]-[1,2,4]triazolo[1,5-a]pyrazin-2-amine]
> 10000 | 233.2 | 79 | – | – | COc1cc(Nc2nc3n(n2)CCCC3c2ccccc2C(F)(F)F)ccc1-n1cnc(C)n1 (stereo not shown) [Compound 15, 5,6,7,8-tetrahydro-N-[3-methoxy-4-(3-methyl-1H-1,2,4-triazol-1-yl)phenyl]-8-[2-(trifluoromethyl)phenyl]-[1,2,4]triazolo[1,5-a]pyridin-2-amine]
– | – | – | > 10000 | 56 | COc1ccc(C2CCCn3nc(Nc4ccc(-c5ccnc(C)c5)c(OC)c4)nc32)cc1F (stereo not shown) [Compound 104, 8-(3-fluoro-4-methoxyphenyl)-5,6,7,8-tetrahydro-N-[3-methoxy-4-(2-methyl-4-pyridinyl)phenyl]-[1,2,4]triazolo[1,5-a]pyridin-2-amine.1.3HCl.2.3H2O]
> 10000 | – | 56 | – | – | COc1cc(Nc2nc3n(n2)CCCC3c2cccc(N(C)C)c2)ccc1-c1ccnc(C)c1 (stereo not shown) [Compound 111, 8-[3-(dimethylamino)phenyl]-5,6,7,8-tetrahydro-N-[3-methoxy-4-(2-methyl-4-pyridinyl)phenyl]-[1,2,4]triazolo[1,5-a]pyridin-2-amine]
> 10000 | – | 41 | – | – | COc1cc(F)cc(C2CCCn3nc(Nc4ccc(-c5ccnc(C)c5)c(OC)c4)nc32)c1 (stereo not shown) [Compound 115, 8-(3-fluoro-5-methoxyphenyl)-5,6,7,8-tetrahydro-N-[3-methoxy-4-(2-methyl-4-pyridinyl)phenyl]-[1,2,4]triazolo[1,5-a]pyridin-2-amine]
> 10000 | – | 28 | – | – | Cc1cc(-c2ccc(Nc3nc4n(n3)CCCC4c3cc(C(F)(F)F)ccc3C)cc2)ccn1 (stereo not shown) [Compound 144, 5,6,7,8-tetrahydro-N-[4-(2-methyl-4-pyridinyl)phenyl]-8-[2-methyl-5-(trifluoromethyl)phenyl]-[1,2,4]triazolo[1,5-a]pyridin-2-amine]
– | – | – | > 10000 | 38 | COc1ccc(F)c(C2CCCn3nc(Nc4ccc(-c5ccnc(C)c5)c(OC)c4)nc32)c1 (stereo not shown) [Compound 172, 8-(2-fluoro-5-methoxyphenyl)-5,6,7,8-tetrahydro-N-[3-methoxy-4-(2-methyl-4-pyridinyl)phenyl]-[1,2,4]triazolo[1,5-a]pyridin-2-amine.1.7HCl]
3980 | – | 16 | – | – | COc1cc(Nc2nc3c(N4CCCC(C(F)(F)F)C4)cccn3n2)ccc1-c1ccnc(C)c1 (stereo not shown) [Compound 181, N-[3-methoxy-4-(2-methyl-4-pyridinyl)phenyl]-8-[3-(trifluoromethyl)-1-piperidinyl]-[1,2,4]triazolo[1,5-a]pyridin-2-amine.1.5HCl.1.7H2O]
